Results: ChEMBL document CHEMBL1125048, “Affinity of 2-(tetrahydroisoquinolin-2-ylmethyl)- and 2-(isoindolin-2-ylmethyl)imidazolines for alpha-adrenoceptors. Differential affinity of imidazolines for the [3H]idazoxan-labeled alpha 2-adrenoceptor vs the [3H]yohimbine-labeled site” (J Med Chem, 1990)

Experiments:
[1] = target: T1, Adrenergic receptor alpha-2 (Rattus norvegicus, UniProt P22086+P19328+P22909); experiment: Binding affinity to the alpha-2 adrenergic receptor of rat cerebral cortex assayed using [3H]idazoxan as radioligand; type: tissue-based
T1 sequence (P22086 whole entry): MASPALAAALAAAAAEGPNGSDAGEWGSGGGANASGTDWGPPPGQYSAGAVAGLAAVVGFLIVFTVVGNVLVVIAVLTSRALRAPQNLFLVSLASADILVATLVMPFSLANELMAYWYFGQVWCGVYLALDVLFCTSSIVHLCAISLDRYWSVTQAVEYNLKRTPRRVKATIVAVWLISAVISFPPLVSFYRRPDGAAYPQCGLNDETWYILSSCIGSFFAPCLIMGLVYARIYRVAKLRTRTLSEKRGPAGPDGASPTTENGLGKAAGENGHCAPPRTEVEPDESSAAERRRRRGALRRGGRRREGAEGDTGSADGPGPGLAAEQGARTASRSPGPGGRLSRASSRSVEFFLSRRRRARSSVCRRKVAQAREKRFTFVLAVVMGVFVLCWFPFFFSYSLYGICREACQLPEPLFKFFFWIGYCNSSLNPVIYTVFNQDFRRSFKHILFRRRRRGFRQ
T1 sequence (P19328 whole entry): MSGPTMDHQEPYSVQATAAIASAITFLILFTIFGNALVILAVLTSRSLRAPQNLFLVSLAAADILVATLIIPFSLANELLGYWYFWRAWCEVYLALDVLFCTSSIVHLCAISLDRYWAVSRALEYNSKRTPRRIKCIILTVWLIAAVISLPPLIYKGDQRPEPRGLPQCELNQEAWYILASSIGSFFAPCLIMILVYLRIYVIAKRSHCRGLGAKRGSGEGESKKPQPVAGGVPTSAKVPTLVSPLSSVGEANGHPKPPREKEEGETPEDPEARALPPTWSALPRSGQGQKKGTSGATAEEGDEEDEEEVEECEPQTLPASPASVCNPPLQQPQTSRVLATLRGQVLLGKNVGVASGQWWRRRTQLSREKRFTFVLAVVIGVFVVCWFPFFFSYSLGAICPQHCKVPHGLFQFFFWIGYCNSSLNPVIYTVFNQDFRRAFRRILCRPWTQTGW
T1 sequence (P22909 whole entry): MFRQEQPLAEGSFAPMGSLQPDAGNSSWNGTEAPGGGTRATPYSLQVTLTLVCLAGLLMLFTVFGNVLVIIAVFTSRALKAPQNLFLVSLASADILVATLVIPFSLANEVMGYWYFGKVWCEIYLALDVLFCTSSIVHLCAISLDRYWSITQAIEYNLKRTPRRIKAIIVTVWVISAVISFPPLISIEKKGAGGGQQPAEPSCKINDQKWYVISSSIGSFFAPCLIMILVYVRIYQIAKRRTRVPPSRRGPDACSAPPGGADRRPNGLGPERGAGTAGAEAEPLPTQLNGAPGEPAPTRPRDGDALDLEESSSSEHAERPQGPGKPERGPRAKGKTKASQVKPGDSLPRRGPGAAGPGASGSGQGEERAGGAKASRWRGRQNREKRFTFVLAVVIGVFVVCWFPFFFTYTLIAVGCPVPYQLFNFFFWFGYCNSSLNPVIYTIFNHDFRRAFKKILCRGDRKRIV

[2] = target: T2, Adrenergic receptor alpha-1 (Rattus norvegicus, UniProt P15823+P23944+P43140); experiment: Binding affinity determined to alpha-1 adrenergic receptor of rat cerebral cortex using [3H]prazosin as radioligand; type: tissue-based
T2 sequence (P15823 whole entry): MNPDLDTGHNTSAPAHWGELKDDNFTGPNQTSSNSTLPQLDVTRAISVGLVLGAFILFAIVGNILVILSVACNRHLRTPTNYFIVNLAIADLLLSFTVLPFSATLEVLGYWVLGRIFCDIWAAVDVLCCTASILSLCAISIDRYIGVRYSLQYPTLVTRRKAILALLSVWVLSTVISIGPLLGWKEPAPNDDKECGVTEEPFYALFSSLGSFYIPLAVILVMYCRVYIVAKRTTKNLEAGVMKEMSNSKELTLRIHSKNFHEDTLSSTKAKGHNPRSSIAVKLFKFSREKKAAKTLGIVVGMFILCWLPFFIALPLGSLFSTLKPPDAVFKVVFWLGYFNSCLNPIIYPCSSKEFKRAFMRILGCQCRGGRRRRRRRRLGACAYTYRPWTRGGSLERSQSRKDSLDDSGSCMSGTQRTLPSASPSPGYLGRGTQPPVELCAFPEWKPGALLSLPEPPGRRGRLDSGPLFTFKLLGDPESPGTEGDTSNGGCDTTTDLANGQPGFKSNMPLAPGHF
T2 sequence (P23944 whole entry): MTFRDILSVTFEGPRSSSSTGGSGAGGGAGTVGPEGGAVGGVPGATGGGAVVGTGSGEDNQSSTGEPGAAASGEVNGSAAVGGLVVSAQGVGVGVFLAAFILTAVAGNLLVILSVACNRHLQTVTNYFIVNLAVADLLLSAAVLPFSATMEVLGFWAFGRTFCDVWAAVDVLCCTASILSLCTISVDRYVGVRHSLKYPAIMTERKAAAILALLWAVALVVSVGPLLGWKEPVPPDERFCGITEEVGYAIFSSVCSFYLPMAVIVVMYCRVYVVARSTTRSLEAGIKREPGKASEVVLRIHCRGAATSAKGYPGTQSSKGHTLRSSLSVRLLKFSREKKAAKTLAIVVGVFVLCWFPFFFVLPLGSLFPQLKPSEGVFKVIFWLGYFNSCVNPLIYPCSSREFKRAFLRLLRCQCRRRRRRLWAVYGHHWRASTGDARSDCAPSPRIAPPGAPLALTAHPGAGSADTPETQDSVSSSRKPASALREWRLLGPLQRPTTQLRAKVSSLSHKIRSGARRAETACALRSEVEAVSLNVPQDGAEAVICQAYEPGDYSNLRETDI
T2 sequence (P43140 whole entry): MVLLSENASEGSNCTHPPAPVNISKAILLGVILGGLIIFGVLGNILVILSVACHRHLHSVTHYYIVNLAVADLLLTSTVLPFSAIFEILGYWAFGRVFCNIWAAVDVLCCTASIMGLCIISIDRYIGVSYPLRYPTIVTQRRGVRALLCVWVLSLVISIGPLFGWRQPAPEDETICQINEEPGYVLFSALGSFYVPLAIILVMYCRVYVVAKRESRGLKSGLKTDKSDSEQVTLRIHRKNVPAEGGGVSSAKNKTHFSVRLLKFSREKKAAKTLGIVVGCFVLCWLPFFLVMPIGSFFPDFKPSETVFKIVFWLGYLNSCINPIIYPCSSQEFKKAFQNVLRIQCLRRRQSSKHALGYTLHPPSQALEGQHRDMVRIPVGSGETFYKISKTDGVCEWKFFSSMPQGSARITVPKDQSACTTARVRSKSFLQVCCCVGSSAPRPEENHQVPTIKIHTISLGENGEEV

[3] = target: T1, Adrenergic receptor alpha-2; experiment: Binding affinity to alpha-2 adrenergic receptor of rat cerebral cortex assayed using [3H]yohimbine as radioligand; type: tissue-based
[4] = target: T3, Adrenergic receptor alpha-2 (Rattus norvegicus) (UniProt P22086+P19328+P22909); experiment: Selectivity ratio is the antilog of the [3H]-yohimbine pKi minus the [3H]prazosin pKi; type: protein assay
[5] = target: T3, Adrenergic receptor alpha-2 (Rattus norvegicus); experiment: Antilog of the [3H]-idazoxan pKi minus the [3H]yohimbine pKi was determined; type: protein assay
[6] = target: T1, Adrenergic receptor alpha-2; experiment: Binding affinity was determined against alpha-2 adrenergic receptor of rat cerebral cortex using [3H]yohimbine as radioligand; type: tissue-based
[7] = target: T1, Adrenergic receptor alpha-2; experiment: Binding affinity was determined against alpha-2 adrenergic receptor of rat cerebral cortex using [3H]idazoxan as radioligand; type: tissue-based

Log Ki [1] | Log Ki [2] | Log Ki [3] | Selectivity ratio [4] | Ratio [5] | Log Ki [6] | Log Ki [7] | SMILES
-7.77 | -5.67 | -6.32 | – | – | – | – | Cl.Cl.c1ccc2c(c1)CCN(CC1=NCCN1)C2
– | < -5 | – | 15 | 4 | -6.18 | -6.83 | Cl.Cl.Clc1ccc2c(c1)CCN(CC1=NCCN1)C2
-8.38 | -6.05 | -7.71 | – | – | – | – | Cl.Cl.Clc1cccc2c1CN(CC1=NCCN1)C2
– | -5.43 | – | 30 | 14 | -6.91 | -8.07 | Cl.Cl.c1ccc2c(c1)CN(CC1=NCCN1)C2
– | < -5 | – | 28 | 0.6 | -6.44 | -6.24 | COc1ccc2c(c1OC)CCN(CC1=NCCN1)C2.Cl.Cl
-7.8 | -5.68 | -7.65 | – | – | – | – | Cl.Cl.Clc1cccc2c1CCN(CC1=NCCN1)C2
-7.38 | -5.26 | -6.57 | – | – | – | – | Cc1cccc2c1CCN(CC1=NCCN1)C2.Cl.Cl
-7.67 | < -5 | -6.42 | – | – | – | – | Cl.Cl.Clc1ccc2c(c1Cl)CCN(CC1=NCCN1)C2
-7.68 | < -5 | -6.52 | – | – | – | – | Cl.Cl.Clc1ccc2c(c1Cl)CN(CC1=NCCN1)CC2
– | -5.19 | – | 332 | 0.2 | -7.71 | -7.02 | COc1ccc(OC)c2c1CCN(CC1=NCCN1)C2C.Cl.Cl (stereo not drawn)
-8.39 | -5.55 | -7.48 | – | – | – | – | Cl.Cl.Fc1cccc2c1CCN(CC1=NCCN1)C2
-6.68 | < -5 | -6 | – | – | – | – | CC1(C)c2ccccc2CCN1CC1=NCCN1.Cl.Cl
-7.2 | < -5 | -6.29 | – | – | – | – | COc1cc2c(c(OC)c1)CN(CC1=NCCN1)CC2.Cl.Cl
-7.14 | < -5 | -6.13 | – | – | – | – | Cl.Cl.O=[N+]([O-])c1cccc2c1CCN(CC1=NCCN1)C2
-7.38 | < -5 | -6.9 | – | – | – | – | CC1Cc2ccccc2CN1CC1=NCCN1.Cl.Cl (stereo not drawn)
-6.31 | < -5 | -6.16 | – | – | – | – | CCC1c2ccccc2CCN1CC1=NCCN1.Cl.Cl (stereo not drawn)
-8 | -4.72 | -7.07 | – | – | – | – | COc1cccc2c1CCN(CC1=NCCN1)C2.Cl.Cl
-7.8 | -4.8 | -7.51 | – | – | – | – | COc1ccc(OC)c2c1CCN(CC1=NCCN1)C2.Cl.Cl
-7.62 | -5.2 | -6.74 | – | – | – | – | CC1c2cccc(Cl)c2CCN1CC1=NCCN1.Cl.Cl (stereo not drawn)
-8.12 | -5.5 | -7.14 | – | – | – | – | Cl.Cl.Clc1ccc(Cl)c2c1CCN(CC1=NCCN1)C2
-8.27 | -5.5 | -7.25 | – | – | – | – | Cl.Cl.Fc1cccc2c1CN(CC1=NCCN1)CC2
-6.41 | < -5 | -5.97 | – | – | – | – | C=CCC1c2ccccc2CCN1CC1=NCCN1.Cl.Cl (stereo not drawn)
-6.13 | < -5 | -5.87 | – | – | – | – | COc1cc2c(cc1OC)CN(CC1=NCCN1)CC2.Cl.Cl
-7.32 | -5.14 | -7.19 | – | – | – | – | CC1c2ccccc2CCN1CC1=NCCN1.Cl.Cl (stereo not drawn)
-6.99 | < -5 | -6.17 | – | – | – | – | Cl.Nc1cccc2c1CCN(CC1=NCCN1)C2
– | -5.8 | – | 7 | 36 | -6.67 | -8.23 | Cl.Cl.Clc1cccc2c1CN(CC1=NCCN1)CC2
